# From EP4714938A1, “HDAC1/2 SELECTIVE INHIBITOR AND USE THEREOF” (Wigen Biomedicine Technology (Shanghai) Co., Ltd., priority 2023, dated 2024)
# Where two headings read alike, the source gives them in different places.
# Assays:
# Acetyl lysine = assay: Intracellular acetyl lysine level by ELISA in HeLa cells; format: cell-based; conditions: 24 h of treatment
# Experimental: (§1) HeLa cells were seeded into a 96-well plate at 20000 cells/well. After overnight adherence culture, the serially diluted compound was added. After 24 h of treatment, intracellular levels of acetyl lysine and H3K 27 acetyl lysine were quantified by ELISA. Table 8. Effect of compound of the present disclosure on levels of acetyl lysine and H3K 27 acetyl lysine
# HDAC1 = HDAC1 (Homo sapiens, UniProt Q13547); assay: HDAC enzyme inhibitory activity, FRET method; format: biochemical
# Sequence of HDAC1 (Q13547 whole entry, species assumed): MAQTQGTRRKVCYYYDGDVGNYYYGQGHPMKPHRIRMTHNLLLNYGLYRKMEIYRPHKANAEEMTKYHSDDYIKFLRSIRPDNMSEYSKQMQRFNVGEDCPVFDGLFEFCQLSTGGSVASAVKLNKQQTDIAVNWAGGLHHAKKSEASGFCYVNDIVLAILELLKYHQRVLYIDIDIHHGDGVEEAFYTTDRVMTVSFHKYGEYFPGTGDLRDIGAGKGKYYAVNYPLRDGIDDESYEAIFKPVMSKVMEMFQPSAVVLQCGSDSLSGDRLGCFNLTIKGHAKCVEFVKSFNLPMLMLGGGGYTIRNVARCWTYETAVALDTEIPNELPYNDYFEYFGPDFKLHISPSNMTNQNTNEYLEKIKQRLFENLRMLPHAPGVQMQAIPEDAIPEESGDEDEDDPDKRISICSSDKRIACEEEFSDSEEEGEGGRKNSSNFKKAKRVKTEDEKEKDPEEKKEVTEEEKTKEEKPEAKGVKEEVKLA
# Experimental: (§3) The compounds of the present disclosure were assayed for enzyme inhibitory activity against various subtypes of HDAC enzymes by the FRET method. The various subtypes of HDAC enzymes were obtained either through purification or direct purchase of assay kits.
# (§4) The specific method was as follows: The enzyme was added to a 384-well plate, and a reaction buffer was added to the control well. Serially diluted DMSO sample solutions were added to the reaction wells, and the plate was incubated at room temperature for 15 min. Then a chromogenic agent was added to stop the reaction, and fluorescence was generated. The fluorescence intensity was measured using an EnVision multi-label microplate reader (excitation: 355 nm, emission: 460 nm). The endpoint value was read after the color development reached stability. The inhibition IC50 of the compounds was calculated using GraphPad Prism4 software relative to DMSO.
# H3K 27 Acetyl lysine = assay: Intracellular H3K 27 acetyl lysine level by ELISA in HeLa cells; format: cell-based; conditions: 24 h of treatment
# Experimental: as §1
# HDAC3 = HDAC3 (Homo sapiens, UniProt O15379); assay: HDAC enzyme inhibitory activity, FRET method; format: biochemical
# Sequence of HDAC3 (O15379 whole entry, species assumed): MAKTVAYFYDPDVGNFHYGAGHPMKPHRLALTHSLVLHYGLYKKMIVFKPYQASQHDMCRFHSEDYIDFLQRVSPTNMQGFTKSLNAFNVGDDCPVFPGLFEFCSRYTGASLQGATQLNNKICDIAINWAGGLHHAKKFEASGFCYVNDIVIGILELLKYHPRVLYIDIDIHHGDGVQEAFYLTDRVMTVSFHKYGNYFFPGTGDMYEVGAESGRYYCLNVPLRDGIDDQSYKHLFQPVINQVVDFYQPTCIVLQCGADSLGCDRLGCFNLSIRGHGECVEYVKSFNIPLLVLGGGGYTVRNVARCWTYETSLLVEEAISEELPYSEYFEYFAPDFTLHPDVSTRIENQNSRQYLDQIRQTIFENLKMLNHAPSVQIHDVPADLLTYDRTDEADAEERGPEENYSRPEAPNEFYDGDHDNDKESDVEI
# Sequence of HDAC3 (Q9Y618 395-489 partner limits assumed, species assumed): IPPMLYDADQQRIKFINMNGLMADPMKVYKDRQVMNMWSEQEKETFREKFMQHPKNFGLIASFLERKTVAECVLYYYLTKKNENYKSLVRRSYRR
# Experimental: as §3, §4
# HDAC2 = HDAC2 (Homo sapiens, UniProt Q92769); assay: HDAC enzyme inhibitory activity, FRET method; format: biochemical
# Sequence of HDAC2 (Q92769 whole entry, species assumed): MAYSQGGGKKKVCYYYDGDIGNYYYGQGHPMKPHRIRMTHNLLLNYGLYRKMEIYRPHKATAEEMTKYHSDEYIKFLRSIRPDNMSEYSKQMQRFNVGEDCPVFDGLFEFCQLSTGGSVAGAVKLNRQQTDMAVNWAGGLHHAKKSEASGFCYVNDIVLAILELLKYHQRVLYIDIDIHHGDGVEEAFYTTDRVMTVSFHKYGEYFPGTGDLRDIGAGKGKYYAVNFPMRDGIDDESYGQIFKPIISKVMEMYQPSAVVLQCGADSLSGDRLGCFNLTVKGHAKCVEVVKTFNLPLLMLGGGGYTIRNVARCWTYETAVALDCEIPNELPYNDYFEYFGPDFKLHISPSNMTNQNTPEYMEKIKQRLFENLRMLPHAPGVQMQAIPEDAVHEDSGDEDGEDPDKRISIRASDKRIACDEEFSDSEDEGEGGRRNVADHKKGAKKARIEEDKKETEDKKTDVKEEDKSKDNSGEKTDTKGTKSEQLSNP
# Experimental: as §3, §4
# Jurkat cell = assay: Inhibition of cell proliferation (CTG, intracellular ATP); format: cell-based; conditions: 72 h
# Experimental: (§2) Jurkat or 293T cells were seeded into a 96-well plate at 3000 cells/well. After overnight adherence culture, the serially diluted compound in DMSO was added. After 72 h, the intracellular ATP level was determined by CTG. The IC50 for the inhibition of cell proliferation by the compounds was calculated compared to the DMSO group. Table 7. Inhibitory activity of compounds of the present disclosure against Jurkat/293T cell proliferation (IC50, µM)
# 293T cell = assay: as above; format: cell-based; conditions: Homo sapiens, HEK-293T, 72 h
# Experimental: as §2
# [1] = Stability in liver microsomes; format: in vitro ADME; conditions: for half-life at 1 µM / T1/2: 1 µM compound, 37 °C, NADPH regeneration system; for Clint: 1 µM
# Experimental: After the 1 µM compound was individually incubated at 37 °C for various durations with […] liver microsomes from humans, monkeys, beagles, rats, or mice in the presence of an NADPH regeneration system, LC-MS-MS was used to analyze the remaining amount of the compound, and T1/2 was calculated. Table 10. Evaluation results of stability of compounds of the present disclosure in human and mouse liver microsomes
# [2] = system: Mouse colon cancer MC38 cells; conditions: MC-38
# Experimental: Female C57BL6N mice (aged 6 weeks, 18-22 g) were provided by Vital River Laboratory Animal Technology Co., Ltd. (China) and used one week after quarantine and acclimation. All animals were kept in a room at 23±2 °C with a relative humidity of 50±5%, artificial lighting was provided from 08:00 to 20:00 every day, and the air was exchanged 13-18 times per hour.
# Mouse colon cancer MC38 cells were cultured conventionally in 1640 medium containing 10% fetal bovine serum in an incubator at 37 °C with 5% CO2. After being subcultured, the cells were collected when they reached the desired amount. The C57BL6N mice were subcutaneously injected with 2 × 10^6 MC38 cells on the right side to form tumors. After the tumors grew to about 100 mm^3, the animals were randomly grouped for administration. Tumor volumes were measured with a caliper on day 3, day 7, day 10, day 14, day 17, and day 21 after the administration. The ability of the compounds to inhibit tumor growth was evaluated according to the tumor growth inhibition rate (TGI) = 1 - (tumor volume on day 28 in treatment group - tumor volume on day 1 in treatment group)/(tumor volume on day 28 in control group - tumor volume on day 1 in control group). The toxicity of the compounds was evaluated according to the body weight and state of the mice.
# The groups were as follows: 1) solvent control group; 2) PD-1+Reg group; 3) Compound 1 group; 4) Reference Compound group; 5) compound 1 (10mg/kg) and PD-1+Reg Combination group; 6) compound 1 (30mg/kg) and PD-1+Reg Combination group; 7) compound 1 (90mg/kg) and PD-1+Reg Combination group; 8) Reference Compound (10mg/kg) and PD-1+Reg Combination group; 9) Reference Compound (30mg/kg) and PD-1+Reg Combination group; 10) Reference Compound (90mg/kg) and PD-1+Reg Combination group, with 6 mice per group.
# Reg represents Regorafenib PD-1 represents an anti-PD-1 antibody; IV represents administration via intravenous injection; PO represents oral administration; QD represents once-daily administration; QW represents once-weekly administration; CR represents complete remission (complete disappearance of the tumor after the dosing cycle is completed); PR represents partial response (tumor volume reduction exceeding 30% relative to the initial volume upon completion of the administration cycle); SD represents stable disease (tumor volume reduction or growth not exceeding 30% relative to the initial volume upon completion of the administration cycle); Died represents mouse died before the dosing cycle is completed; Administration period* is once daily (QD) for 10 consecutive days, followed by a 16-day off-treatment period; the once-weekly (QW) regimen is administered only on Day 1 and Day 8.
# HDAC10 = biological target: T1, HDAC10 (Homo sapiens, UniProt Q969S8); conditions: read-out: IC50 HDAC subtype 10; Table 6
# T1 sequence (Q969S8 1-669): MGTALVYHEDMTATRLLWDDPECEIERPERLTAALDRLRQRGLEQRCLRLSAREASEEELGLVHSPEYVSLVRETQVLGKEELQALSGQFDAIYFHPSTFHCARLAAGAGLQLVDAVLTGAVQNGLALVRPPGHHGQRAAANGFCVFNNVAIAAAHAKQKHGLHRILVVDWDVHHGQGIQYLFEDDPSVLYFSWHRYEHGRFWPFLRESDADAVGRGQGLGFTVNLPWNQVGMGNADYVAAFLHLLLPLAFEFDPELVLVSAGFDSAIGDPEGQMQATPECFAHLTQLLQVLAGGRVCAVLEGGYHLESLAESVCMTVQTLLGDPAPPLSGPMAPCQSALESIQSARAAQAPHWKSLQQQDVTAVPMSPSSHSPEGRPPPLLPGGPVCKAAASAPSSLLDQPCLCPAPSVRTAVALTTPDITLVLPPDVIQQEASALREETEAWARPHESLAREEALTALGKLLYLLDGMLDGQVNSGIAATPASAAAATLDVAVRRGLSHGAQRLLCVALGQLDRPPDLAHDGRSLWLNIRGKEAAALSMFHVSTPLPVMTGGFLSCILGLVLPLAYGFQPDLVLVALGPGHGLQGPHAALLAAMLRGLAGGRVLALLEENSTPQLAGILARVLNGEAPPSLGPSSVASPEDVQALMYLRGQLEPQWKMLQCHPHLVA
# Experimental: as §3, §4
# [3] = system: Mouse colon cancer CT-26 cells; conditions: for Tumor response, number of mice (CR/PR/SD): 6 mice per group; for TGI(%): QD for 14 consecutive days, PO
# Experimental: Female BALB/c mice (aged 6 weeks, 18-22 g) were provided by Vital River Laboratory Animal Technology Co., Ltd. (China) and used one week after quarantine and acclimation. All animals were kept in a room at 23±2 °C with a relative humidity of 50±5%, artificial lighting was provided from 08:00 to 20:00 every day, and the air was exchanged 13-18 times per hour.
# Mouse colon cancer CT-26 cells were cultured conventionally in 1640 medium containing 10% fetal bovine serum in an incubator at 37 °C with 5% CO2. After being subcultured, the cells were collected when they reached the desired amount. The BALB/c mice were subcutaneously injected with 2 × 10^5 CT-26 cells on the right side to form tumors. After the tumors grew to about 100 mm^3, the animals were randomly grouped for administration. Tumor volumes were measured with a caliper on day 3, day 7, day 10, day 14, day 17, and day 21 after the administration. The ability of the compounds to inhibit tumor growth was evaluated according to the tumor growth inhibition rate (TGI) = 1 - (tumor volume on day 28 in treatment group - tumor volume on day 1 in treatment group)/(tumor volume on day 28 in control group - tumor volume on day 1 in control group). The toxicity of the compounds was evaluated according to the body weight and state of the mice.
"IC50 (HDAC1; Table 4, read-out: IC50 HDAC1) [nM]","IC50 (HDAC1; Table 5, read-out: IC50 HDAC1) [nM]","IC50 (HDAC3; Table 4, read-out: IC50 HDAC3) [µM]","IC50 (HDAC3; Table 5, read-out: IC50 HDAC3) [µM]","IC50 (HDAC2; Table 4, read-out: IC50 HDAC2) [nM]","IC50 (HDAC2; Table 5, read-out: IC50 HDAC2) [nM]",CLint scaled at 1 µM ([1]; Human liver microsomes) [mL/min/kg],Clliver ([1]; Human liver microsomes) [mL/min/kg],half-life at 1 µM ([1]; Human liver microsomes) [min],CLint scaled at 1 µM ([1]; Mouse liver microsomes) [mL/min/kg],Clliver ([1]; Mouse liver microsomes) [mL/min/kg],half-life at 1 µM ([1]; Mouse liver microsomes) [min],Compound,Acetyl lysine Maximum (%) (Acetyl lysine),Acetyl lysine Minimum effective concentration (Acetyl lysine) [nM],H3K 27 Acetyl lysine Maximum (%) (H3K 27 Acetyl lysine),H3K 27 Acetyl lysine Minimum effective concentration (H3K 27 Acetyl lysine) [nM],also measured
< 500,< 30,> 5,> 3,< 500,30 to 300,,,,,,,CN1CCS(=O)(=Nc2ccc(C(=O)Nc3cc(-c4ccc(F)cc4)ccc3N)cc2)CC1 [Compound 67],570,16,300,16,"IC50 (Jurkat cell; Homo sapiens, Jurkat): 300 nM; IC50 (293T cell): > 10 µM"
,< 30,,> 3,,30 to 300,8.26,5.91,210,0.45,0.45,12000,CS(C)(=O)=Nc1ccc(C(=O)Nc2cc(-c3ccc(F)s3)ccc2N)cc1 [Compound 33],,,,,
< 500,< 30,> 5,> 3,< 500,30 to 300,1.85,1.70,939,17.8,14.87,306,CS(C)(=O)=Nc1ccc(C(=O)Nc2cc(-c3ccc(Cl)cc3)ccc2N)cc1 [Compound 3],,,,,

Compound,"IC50 (HDAC1; Table 4, read-out: IC50 HDAC1) [nM]","IC50 (HDAC1; Table 5, read-out: IC50 HDAC1) [nM]","IC50 (HDAC3; Table 4, read-out: IC50 HDAC3) [µM]","IC50 (HDAC3; Table 5, read-out: IC50 HDAC3) [µM]","IC50 (HDAC2; Table 4, read-out: IC50 HDAC2) [nM]","IC50 (HDAC2; Table 5, read-out: IC50 HDAC2) [nM]",CLint scaled at 1 µM ([1]; Human liver microsomes) [mL/min/kg],Clliver ([1]; Human liver microsomes) [mL/min/kg],half-life at 1 µM ([1]; Human liver microsomes) [min],CLint scaled at 1 µM ([1]; Mouse liver microsomes) [mL/min/kg],Clliver ([1]; Mouse liver microsomes) [mL/min/kg],half-life at 1 µM ([1]; Mouse liver microsomes) [min],Acetyl lysine Maximum (%) (Acetyl lysine),Acetyl lysine Minimum effective concentration (Acetyl lysine) [nM],H3K 27 Acetyl lysine Maximum (%) (H3K 27 Acetyl lysine),H3K 27 Acetyl lysine Minimum effective concentration (H3K 27 Acetyl lysine) [nM],also measured
"CS(=O)(=O)Nc1ccc(C(=O)Nc2cc(-c3ccc(F)cc3)ccc2N)cc1 [Reference Compound, N-(4-amino-4'-fluoro-[1,1'-biphenyl]-3-yl)-4-(S-methylsulfonamido) benzamide, reference compound]",,30 to 300,,> 3,,30 to 300,,11.68,,,9.20,,350,80,190,80,"Change in body weight(%) ([2]; monotherapy 90 mg/kg QD PO): 17.04 ± 1.54%; Tumor response, number of mice (CR/PR/SD) ([2]; monotherapy 90 mg/kg QD PO, CR complete remission, PR partial response, SD stable disease, 6 mice per group): 1PR; TGI(%) ([2]; monotherapy 90 mg/kg, QD for 10 consecutive days, PO): 73.90%; IC50 (HDAC10): 83.2 nM; T1/2 ([1]; Human liver microsomes): 64.92 min; Clint ([1]; Human liver microsomes): 26.78 mL/min/kg; T1/2 ([1]; Mouse liver microsomes): 532.44 min; Clint ([1]; Mouse liver microsomes): 10.25 mL/min/kg; IC50 (HDAC1; Table 6, read-out: IC50 HDAC subtype 1): 44.4 nM; IC50 (HDAC3; Table 6, read-out: IC50 HDAC subtype 3): 8.28 µM; Change in body weight(%) ([3]; monotherapy 30 mg/kg QD PO): 4.73±1.54%; Tumor response, number of mice (CR/PR/SD) ([3]; monotherapy 30 mg/kg QD PO): 1PR; TGI(%) ([3]; monotherapy 30 mg/kg): 56.10%; Change in body weight(%) ([3]; monotherapy 90 mg/kg QD PO): -3.53±2.89%; Tumor response, number of mice (CR/PR/SD) ([3]; monotherapy 90 mg/kg QD PO): 1PR+2SD; TGI(%) ([3]; monotherapy 90 mg/kg): 95.93%; IC50 (HDAC2; Table 6, read-out: IC50 HDAC subtype 2): 178 nM; IC50 (Jurkat cell): 1940 nM"
